Measurements from patent publication US10196359B2, “2-alkyloxy benzene formyl arylamine compound and pharmaceutical use thereof” (FUDAN UNIVERSITY, priority 2014, dated 2019).
Read-outs that look alike come from different tables or passages of the source.

Key:
[1] = target: T1, Sphingomyelin Synthase 2 (SMS2) (Homo sapiens, UniProt Q8NHU3); test: In vitro inhibition of sphingomyelin synthase 2, HPLC fluorogenic quantitative detecting method (C6-NBD-ceramide to C6-NBD-SM, SMS2 high-expressed insect cell homogenate); type: biochemical; conditions: for IC50: read-out: SMS2 Median Inhibitory Concentration IC50
T1 construct: made in house; used as homogenate
T1 sequence (Q8NHU3 1-365): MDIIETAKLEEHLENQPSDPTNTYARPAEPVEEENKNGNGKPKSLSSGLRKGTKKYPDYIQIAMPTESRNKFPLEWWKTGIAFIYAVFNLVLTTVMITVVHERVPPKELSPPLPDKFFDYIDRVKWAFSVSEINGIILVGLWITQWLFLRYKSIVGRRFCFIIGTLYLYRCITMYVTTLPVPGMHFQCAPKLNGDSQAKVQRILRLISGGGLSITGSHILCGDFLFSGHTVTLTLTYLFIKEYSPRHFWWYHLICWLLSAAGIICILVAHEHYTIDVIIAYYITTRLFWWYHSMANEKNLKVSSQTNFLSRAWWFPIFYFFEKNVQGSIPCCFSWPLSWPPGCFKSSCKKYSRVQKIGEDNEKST
Text: The second aim of the present invention is to show the use of 2-alkoxy benzene formyl arylamines in preparing SMS small-molecule inhibitors. This invention evaluate SMS inhibitory activity of 2-alkoxy benzene formyl arylamines as scheme I through HPLC fluorogenic quantitative detecting method reported (Xiaodong Deng; Hong Sun; et al. Analytical Letters, 2012, 45:12, 1581-1589), which can make it possible to calculate the catalytic activity difference of SMS treated with inhibitors or not through content changes of NBD-ceramide and NBD-sphingomyelin.
9. The organic solvents were purchased from Shanghai Sinopharm Reagent Company; methanol is of HPLC grade; water is ultrapure water filtrated by Milli-Q pump and deionized and ultrafiltrated by 0.22 μm ultrafiltration membrane. Other biological supplies are purchased in domestic companies. 10. Preparation of SMS homogenate extraction buffer (Buffer1): (50 mM Tris hydrochloride, pH 7.4, 5% anhydrous sucrose, 1 mM ethylenediaminetetraacetic acid) 1.2114 g tris(hydroxymethyl)aminomethane hydrochloride (Tris-HCl) was dissolved in 100 ml distilled water. Then 84 ml 0.1 mol/L hydrochloric acid was added. Constant volume to 200 ml. Finally, 10 g sucrose and 58.45 mg EDTA were dissolved in the mixture. 11. Preparation of SMS test buffer […]: (100 mM Hepes, 30 mM MnCl2, 3% fatty acid free BSA): 1.1916 g 4-(2-hydroxyethyl)-1-peperazineethanesulfonic acid (Hepes), 0.2969 g MnCl2.4H2O and 0.3 g fatty acid free bovine serum albumin were dissolved in distilled water then constant volume to 50 ml. 12. Preparation of under tested compound solution: To each accurate weighed compound for 1˜2 mg, an appropriate amount of DMSO was added to formulate a stock solution of 6 mM precisely. To a certain volume of the DMSO stock solution of the test compound, the appropriate volume of DMSO was added to dilute the solution to the desired concentration. 13. SMS2 high-expressed insect cell homogenate was prepared by Xu Yanhui group from Institutes of Biomedical Sciences, Fudan University. Part 1 Activity Assay for Inhibition of 2-Alkoxy-Benzoyl Aromatic Amines to Sphingomyelin Synthase 2
250 μL tri-distilled water, 30 μL Buffer2, 4 μL SMS2 high-expressed insect cell homogenate (total protein content is 0.5 μg/μL) and 10 μL DMSO or DMSO solution of under tested compound were added to 1.5 mL eppendorf tube, vortex mixed for 30 seconds and then incubated in a 37° C. water bath for 0.5 h. 3 μL ethanol solution of DMPC (40 mM) and 3 μL ethanol solution of C6-NBD-Ceramide (1.16 mM) were added, vortex mixed for 30 seconds, and then incubate in a 37° C. water bath for 2.0 hours. To it 600 μL anhydrous ethanol was added vortex mixed for 1 minute and centrifuged 10 minutes in 10000 rpm and 600 μL supernatant was taken out and stored at 4° C. for HPLC analysis.
Using the same HPLC fluorogenic quantitative detecting method as reference (Xiaodong Deng; Hong Sun; et al. Analytical Letters, 2012, 45:12, 1581-1589) to analysize samples obtained above. Analysize and record peak areas of C6-NBD-SM (Asm) and C6-NBD-Ceramide (Acer) of each sample from blank group, positive control group (compound D2) and under tested compound group. The data were parallelly determined for 3 times. Calculate inhibition rate from the formula below: […]
The DMSO stock solution of under tested compound (6 mM) was diluted stepwise into five concentration gradient. 10 μL solution of each concentration was added into the trial system to prepare samples with the method mentioned in the first step of application case 12. The Asm values of the five concentration solution of tested compound were measured, and the inhibition rate under the five concentration were calculated and fitted to obtain median inhibitory concentration (IC50). Each compound was measured three parallel groups. SMS2 median inhibitory concentration of Scheme I-1˜I-60 are listed below in Table 1: […]

SMS = conditions: reference value; read-out: IC50 (SMS inhibitory activity); cited from earlier work
[2] = at 10 μM, read-out: inhibition rate
[3] = five concentrations, three parallel groups, experimental value

Compound | inhibition at 10 µM [1, 2] | IC50 [1, 3] | other results
O=C(Nc1cccnc1)c1ccccc1OCc1cccc2ccccc12 [Scheme I-45, 2-((naphthalen-1-yl)methoxy)-N-(pyridin-3-yl) benzamide] | 78% | 2.6 µM | melting point: 91.4 to 93.9 °C
COc1ccc(C(=O)Nc2cccnc2)c(OCc2ccccc2Cl)c1 [Scheme I-60, 2-(2-chloro-benzyloxy)-4-methoxy-N-(pyridin-3-yl) benzamide] | 13.3% | > 50 µM | melting point: 129.2 to 131.9 °C
2-((2-methoxy-5-chloro) benzyloxy)-N-(pyridin-3-yl) benzamide [Scheme I-31] | – | 0.7 µM | inhibition rate ([1]; at 10 μM): 92.4%
CCCCCCOc1ccccc1COc1ccccc1C(=O)Nc1cccnc1 [Scheme I-37, 2-((2-hexyloxy)benzyloxy)-N-(pyridin-3-yl) benzamide] | – | 0.7 µM | inhibition rate ([1]; at 10 μM): 90.2%
2-((4-nitro) benzyloxy)-N-(pyridin-3-yl) benzamide [Scheme I-13] | – | > 100 µM | inhibition rate ([1]; at 50 μM): 11.8%
2-(3-bromo-benzyloxy)-N-(pyridin-3-yl) benzamide [Scheme I-8] | – | > 50 µM | inhibition rate ([1]; at 50 μM): 67.1%
2-((2-ethyl) benzyloxy)-N-(pyridin-3-yl) benzamide [Scheme I-27] | – | 0.9 µM | inhibition rate ([1]; at 5 μM): 78.4%
O=C(Nc1cccnc1)c1ccccc1OCc1cccc(Cl)c1F [Scheme I-18, 2-((2-fluoro-3-chloro)benzyloxy)-N-(pyridin-3-yl) benzamide] | – | – | IC50 [1]: 3.1 µM; inhibition at 5 µM ([1]; read-out: inhibition rate): 55.2%
O=C(O)COc1cccc(COc2ccccc2C(=O)Nc2cccnc2)c1 [Scheme I-48, 2-(3-((2-(pyridin-3-ylcarbamoyl)phenoxy)methyl)phenoxy) acetic acid] | 3% | > 100 µM | –
O=C(Nc1cccnc1)c1ccccc1OCc1cccc(Cl)c1 [Scheme I-7, 2-(3-chloro-benzyloxy)-N-(pyridin-3-yl) benzamide] | – | – | IC50 [1]: 1.4 µM; inhibition at 5 µM ([1]; read-out: inhibition rate): 70.6%
2-((2,5-dichloro) benzyloxy)-N-(pyridin-3-yl) benzamide [Scheme I-33] | – | 1 µM | inhibition rate ([1]; at 10 μM): 87.9%
O=C(Nc1cccnc1)c1ccccc1OCc1c(F)cccc1Cl [Scheme I-32, 2-((2-chloro-6-fluoro)benzyloxy)-N-(pyridin-3-yl) benzamide] | – | – | IC50 [1]: 1.5 µM; inhibition at 10 µM ([1]; read-out: inhibition rate): 82.3%
CCOC(=O)c1ccc(COc2ccccc2C(=O)Nc2cccnc2)cc1 [Scheme I-19, 4-((2-(pyridin-3-ylcarbamoyl)phenoxy)methyl) benzene carboxylic acid ethyl ester] | 2.9% | > 100 µM | –
2-((5-chloro-2-heptyloxy) benzyloxy)-N-(pyridin-3-yl) benzamide [Scheme I-40] | – | 0.4 µM | inhibition rate ([1]; at 5 μM): 87.1%
2-((2-chloro-5-fluoro) benzyloxy)-N-(pyridin-3-yl) benzamide [Scheme I-16] | – | 0.7 µM | inhibition rate ([1]; at 5 μM): 75.7%
2-((2-nitro) benzyloxy)-N-(pyridin-3-yl) benzamide [Scheme I-12] | – | > 50 µM | inhibition rate ([1]; at 50 μM): 35.5%
O=C(Nc1cccnc1)c1cc(Cl)ccc1OCc1cc(F)ccc1Cl [Scheme I-55, 5-chloro-2-((2-chloro-5-fluoro)benzyloxy)-N-(pyridin-3-yl) benzamide] | 31.7% | > 25 µM | –
CCCCCCCOc1ccccc1COc1ccccc1C(=O)Nc1cccnc1 [Scheme I-38, 2-((2-heptyloxy)benzyloxy)-N-(pyridin-3-yl) benzamide] | 90.5% | 0.5 µM | –
O=C(O)COc1ccccc1COc1ccccc1C(=O)Nc1cccnc1 [Scheme I-47, 2-(2-((2-(pyridin-3-ylcarbamoyl)phenoxy)methyl)phenoxy) acetic acid] | 7.4% | > 100 µM | –
2-(4-bromo-benzyloxy)-N-(pyridin-3-yl) benzamide [Scheme I-9] | – | > 100 µM | inhibition rate ([1]; at 50 μM): 14.7%
COCCOc1ccc(Cl)cc1COc1ccccc1C(=O)Nc1cccnc1 [Scheme I-50, 2-((5-chloro-2-(2-methoxyethoxy))benzyloxy)-N-(pyridin-3-yl) benzamide] | 54.2% | 11.6 µM | –
O=C(Nc1cncnc1)c1ccccc1OCc1ccccc1 [Scheme I-53, 2-benzyloxy-N-(pyrimidin-5-yl) benzamide] | 38.4% | > 25 µM | melting point: 112.3 to 114.9 °C
O=C(Nc1ccccn1)c1ccccc1OCc1ccccc1 [Scheme I-52, 2-benzyloxy-N-(pyridin-2-yl) benzamide] | – | 11.7 µM | inhibition at 100 µM ([1]; at 100 μM, read-out: inhibition rate): 60.1%
O=C(Nc1cccnc1)c1ccccc1OCc1ccccc1OCCCCCCCl [Scheme I-36, 2-(2-(6-Chloro-hexyloxy)benzyloxy)-N-(pyridin-3-yl) benzamide] | 91.5% | 0.5 µM | –
COc1ccccc1COc1ccccc1C(=O)Nc1cccnc1 [Scheme I-24, 2-((2-methoxy)benzyloxy)-N-(pyridin-3-yl) benzamide] | 89.4% | 0.8 µM | –
S=C(S)OC1CC2CC1C1CCCC21 (stereo not drawn) [Scheme D609] | – | – | IC50 (SMS): 375 µM
